The nature of data set [1]: Enhancing the impression of sweetness of a solution containing a sweet-tasting substance (expert panel rating), sucrose. The class given is in vivo. The settings on record: 30 ppm substance, 5%. The protocol:
(§1) In order to quantify the enhancement of an impression of sweetness by adding 4-hydroxydihydrochalcones to be used according to the invention, the sweetness of a solution containing a sweet-tasting substance and of samples containing the same amount of sweet-tasting substance and in addition a certain concentration of the 4-hydroxydihydrochalcones of the formula (I) to be used according to the invention was determined by a group of experts (classification 0 [extremely weaklysweet] to 10 [extremely sweet]). Evaluation was performed by calculating the enhancement (in %) of the impression of sweetness from the average values of the ratings for the solution containing the sweet-tasting substance (a) and for the solution containing the sweet-tasting substance and 4-dydroxydihydrochalcones (b).

Data set [2] in a line: Enhancing the impression of sweetness of a solution containing a sweet-tasting substance (expert panel rating), glycerine. It counts as in vivo. Conditions: 30 ppm substance, 5%. As to the method:
as §1

Data set [3] is described as follows: Impression of sweetness of a sugar-reduced test solution (5% sucrose + compound against 6% sucrose). The class given is in vivo. From the text:
In order to quantify the retention of an impression of sweetness when replacing a proportion of sucrose with a small amount of 4-hydroxydihydrochalcones of the formula (I) being used in accordance with the invention, the sweetness (a) of a solution containing 6 wt. % of sucrose as compared with a solution containing 5 wt. % of sucrose and (b) or (c) of a solution containing 6 wt. % of sucrose as compared with a solution containing 5% of sucrose and a certain concentration of a 4-hydroxydihydrochalcone being used according to the invention was determined by a group of experts (classification 0 [not sweet] to 10 [extremely sweet]). Evaluation was performed by calculating the enhancement (in %) of the impression of sweetness from the average values of the estimates for the solutions of 6% sucrose (second column) and for the solutions containing 5% sucrose and optionally the 4-hydroxydihydrochalcone of the formula (I) being used according to the invention (third column).

The conditions of data set [4]: in particular in clear aqueous applications; cited from earlier work.

`O=C(CCc1ccc(O)cc1)c1c(O)cc(O)cc1O` [compound 4, 3-(4-hydroxyphenyl)-1-(2,4,6-trihydroxyphenyl)propan-1-one]: the “total number of tasters / number of tasters who felt that test solution (b) was sweeter than test solution (a)” value in data set [1] is 16/14; in data set [2], 16/11. Further, the entries for the “% enhancement of the impression of sweetness” value in data set [1] ((b) with against (a) without), in data set [2] ((b) with against (a) without) and in data set [3] (5% sucrose + 30 ppm substance against 6% sucrose) were “+31%”, “+45%” and −4.9%, respectively. Further, the “Impression of sweetness (1-10) b) with” value turned out to be 7.4 ± 1.4 in data set [1] (mean ± standard deviation) and 4.4 ± 2.1 in data set [2] (mean ± standard deviation). Further, in data set [3] (5% sucrose + 30 ppm substance), the “total number of tasters / number of tasters who felt the 5 wt. % sucrose test solution with substance sweeter than 6 wt. % sucrose” value is on record as 16/7. Also, the “Impression of sweetness (1-10)” value in data set [3] (5% sucrose + 30 ppm substance, mean ± standard deviation) came out at 6.1 ± 1.4.
Regarding `COc1ccc(C2CC(=O)c3c(O)cc(O)cc3O2)cc1O` (stereo not shown) [hesperetin], in data set [4], the solubility result is reported as “low solubility”.

Values taken from patent US9445606B2, “Use of 4-hydroxydihydrochalcones and their salts for enhancing an impression of sweetness” (SYMRISE AG, priority 2006, dated 2016).
